Target: T1, NUDT8 (Homo sapiens, UniProt Q8WV74)
T1 construct: H460 cells or H460 cells expressing luciferase in a 10 cm plate were incubated with indicated compounds; endogenous in cells; host or cells: H460
Assay: isoTOP-ABPP of compound-treated H460 cells: NUDT8
Assay type: cell-based
Details: NUDT8 C207; 40 μM
Protocol: For analysis of NR0B1 ligands or control compound reactivity, H460 cells or H460 cells expressing luciferase in a 10 cm plate were incubated with indicated compounds in serum/dye-free RPMI for 3 hours at 37° C. Cells were washed once ice-cold PBS and lysed in 1% Triton X-100 dissolved in PBS with protease inhibitors (Sigma) by sonication. Samples were clarified by centrifugation for 10 min at 16,000×g. Lysate was adjusted to 1.5 mg ml^−1 in 500 μL.
Samples were labeled for 1 h at ambient temperature with 100 μM iodoacetamide alkyne (1, IA-alkyne, 5 μL of 10 mM stock in DMSO). Samples were conjugated by copper-catalyzed azide-alkyne cycloaddition (CuAAC) to isotopically labeled, TEV-cleavable tags (TEV-tags). Heavy CuAAC reaction mixtures was added to the DMSO-treated or shGFP control samples and light CuAAC reaction mixture was added to compound-treated or shNRF2 samples. The CuAAC reaction mixture consisted of TEV tags (light or heavy, 10 μL of 5 mM stocks in DMSO, final concentration=100 μM), 1 mM tris(2-carboxyethyl)phosphine hydrochloride (TCEP; fresh 50× stock in water, final concentration=1 mM), ligand (17× stock in DMSO:t-butanol 1:4, final concentration=100 μM) and 1 mM CuSO4 (50× stock in water, final concentration=1 mM). The samples were allowed to react for 1 h at which point the samples were centrifuged (16,000×g, 5 min, 4° C.). […]

T1 sequence (Q8WV74 whole entry): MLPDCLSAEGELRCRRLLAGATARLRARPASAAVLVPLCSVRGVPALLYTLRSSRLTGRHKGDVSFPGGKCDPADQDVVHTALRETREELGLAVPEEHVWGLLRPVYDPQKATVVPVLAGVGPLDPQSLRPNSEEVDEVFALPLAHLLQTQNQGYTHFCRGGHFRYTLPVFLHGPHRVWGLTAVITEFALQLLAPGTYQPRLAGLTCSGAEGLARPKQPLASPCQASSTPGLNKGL

## O=C(c1ccc(N2CCOCC2)cc1)N1CCCC(N(Cc2ccccc2)C(=O)CCl)CC1 (stereo not shown) [BPK-29, N-benzyl-2-chloro-N-(1-(4-morpholinobenzoyl)azepan-4-yl)acetamide]
  BPK-29-competed isoTOP-ABPP analysis: Yes (Competed defined as showing R value ≥ 3.0 at 40 μM of test compound)
